Values joined by “and” are separate entries in the source; they are usually repeats but may differ in a detail not shown here. Equal entries are not always repeated.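 Step 1: Grow cells in 96-well plates. Step 2: Expose to compound for 48 hours at 5 concentrations. Step 3: Interpolate endpoints linearly; if unreached, use highest concentration. GI50 marks 50% less growth. The concentration for full growth arrest is given as TGI.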
Key:
Experiment in all cases: NCI-60 cell line screen, 48 h
[1] = test system: HCC-2998 colon
[2] = test system: HOP-62 NSCLC
[3] = test system: IGROV1 ovarian
[4] = test system: NCI-H226 lung
[5] = test system: NCI-H460 lung
[6] = test system: OVCAR-8 ovarian
[7] = test system: SF-268 CNS
[8] = test system: SF-295 CNS
[9] = test system: U251 CNS
[10] = test system: UACC-257 melanoma

SMILES	GI50 [1]	TGI [1]	GI50 [2]	TGI [2]	GI50 [3]	TGI [3]	GI50 [4]	TGI [4]	GI50 [5]	TGI [5]	GI50 [6]	TGI [6]	GI50 [7]	TGI [7]	GI50 [8]	TGI [8]	GI50 [9]	TGI [9]	GI50 [10]	TGI [10]
O=c1cccc(C#CC#CCCCO)o1	2.58 µM	7.38 µM	6.26 µM	12.2 µM	2.65 µM	> 22.1 µM	13.8 µM	32.5 µM	9.55 µM	33.6 µM	4.33 µM	> 35.8 µM	7.71 µM	18.5 µM	13.5 µM	28.9 µM	2.74 µM	7.96 µM	3.48 µM	15.8 µM
C=C1CC[C@@H]2[C@](C)(COC(C)=O)[C@H](OC(C)=O)CC[C@@]2(C)[C@@H]1CC(Nc1ccc(S(=O)(=O)Nc2nccs2)cc1)C1=CCOC1=O (stereo not given in full)	7.78 µM	21.3 µM	13.8 µM	27.5 µM	4.54 µM	17.1 µM	2.36 µM	5.37 µM	10.7 µM	25.3 µM	3.14 µM	10.8 µM	11.3 µM	25.9 µM	13.8 µM	27.2 µM	1.86 µM	3.5 µM	2.55 µM	5.61 µM
C[C@H]1c2ccccc2CN1CCCOc1cc2c(cc1OCC1CC1)C1(CCCC1)C(N)=N2	0.931 µM	1.78 µM	3.67 µM	10.2 µM	2.27 µM	9.11 µM	1.02 µM	2.9 µM	1.02 µM	2.1 µM	2.38 µM	8.83 µM	2.94 µM	10.3 µM	1.89 µM	6.71 µM	1.31 µM	4.08 µM	0.999 µM	2.13 µM
O=C(N/C(=C\c1cc(Cl)ccc1Cl)c1nc2ccc(Cl)cc2[nH]1)c1ccccc1		32.4 µM		32.3 µM		29.8 µM		42.4 µM		30.5 µM		31.6 µM		28.1 µM		31.3 µM		30.1 µM		28.3 µM
CC(=O)[CH-]C(=O)Nc1ccccc1.CC(=O)[CH-]C(=O)Nc1ccccc1.CC[O-].CC[O-].[Ti+4]	> 100 µM	> 100 µM	> 100 µM	> 100 µM	> 100 µM	> 100 µM	> 100 µM	> 100 µM	> 100 µM	> 100 µM	> 100 µM	> 100 µM	> 100 µM	> 100 µM	> 100 µM	> 100 µM	> 100 µM	> 100 µM	> 100 µM	> 100 µM
Cc1ccc(NC(=O)CC2SC(N)=NC2=O)cc1C (stereo not given)		> 100 µM		> 100 µM		> 100 µM		> 100 µM		> 100 µM		> 100 µM		> 100 µM		> 100 µM		> 100 µM		> 100 µM
C#C[C@H]1CCCCCC1O (stereo not given in full)		> 100 µM		> 100 µM		> 100 µM		> 100 µM		> 100 µM		> 100 µM		> 100 µM		> 100 µM		> 100 µM		> 100 µM
Nc1ncnc2c1nnn2C1C=C(CO)C(O)C1O (stereo not given)		> 100 µM		> 100 µM		> 100 µM		> 100 µM		> 100 µM		> 100 µM		> 100 µM		> 100 µM		> 100 µM		> 100 µM
COC/N=C(/N)NC#N		> 100 µM		> 100 µM		> 100 µM		> 100 µM		> 100 µM		> 100 µM		> 100 µM		> 100 µM		> 100 µM		> 100 µM
CCOC(=O)C1=C(C)N2C(=NC3=C(CCC/C3=C\c3ccc(Cl)cc3)C2c2ccc(Cl)cc2)S1 (stereo not given)	1.79 µM	3.19 µM	2.55 µM	5.38 µM	3.11 µM	10.1 µM	3.04 µM	8.8 µM	4.04 µM	19.4 µM	3.24 µM	31 µM	3.24 µM	30.4 µM	2.85 µM	8.76 µM	1.86 µM	4.06 µM	2.05 µM	5.18 µM
C=CCn1c(=O)c2cnc(Nc3ccc(N4CCN(C)CC4)cc3)nc2n1-c1cccc(C(C)(C)O)n1	0.388 µM and 1.13 µM	7.26 µM and > 7.72 µM	1.4 µM and 0.802 µM	14.4 µM and > 10 µM	0.184 µM and 0.225 µM	15.5 µM and > 5.26 µM	0.456 µM and 1.9 µM	5.95 µM and > 7.68 µM	1.56 µM and 0.996 µM	14.1 µM and > 10 µM	0.417 µM and 0.526 µM	2.91 µM and > 7.79 µM	1.49 µM and 1.69 µM	51.9 µM and > 10 µM	0.48 µM and 0.589 µM	14.4 µM and > 10 µM	0.707 µM and 1.18 µM	19.9 µM and > 10 µM	0.675 µM and > 4.69 µM	18.7 µM and > 10 µM
Cn1nnc2c(C(N)=O)ncn2c1=O		> 100 µM		> 100 µM		> 100 µM		> 100 µM		> 100 µM		> 100 µM		> 100 µM		> 100 µM		> 100 µM		> 100 µM

— PubChem BioAssay (NCI)
